Data on one compound can be found in paper PMC11058299, “Synthesis, molecular docking evaluation for LOX and COX-2 inhibition and determination of in-vivo analgesic potentials of aurone derivatives” (Heliyon, 2024).

SMILES strings stand for the structures. Where “and” joins values, the source holds several entries; their conditions need not be identical. Identical values can stand only once.

For data set [1], the system named is heat induced tail flicking latency. The data set can be described thus: Tail immersion test. The settings on record: mice; for tail flicking latency: after 90 min, without Naloxone. The format is in vivo. How it is done:
Group I: Control, Group II-XV: WE-1 to WE-7 (sample compounds) at dose of 10 mg/kg and 20 mg/kg and Group XVI: Standard. The control (Group I) was given normal saline. Group II-XV received 10 mg/kg and 20 mg/kg of test sample (WE-1 to WE-7).
(§1) The cut-off time was set at 25 s, and the time taken for the mice to flick their tails out of the water was recorded at 30, 60, 90, and 120-min intervals. An increase in the time of tail immersion was compared to the control group to determine the analgesic effect of the tested drugs. The percentage of inhibition was calculated at the time interval showing the highest effect.

Data set [2] relates to acetic acid induced writhing. In words: Acetic acid induced writhing test. The format is in vivo. The settings on record: mice; for number of writhing: mean ± SEM, control 61.22 ± 3.90. On the procedure: The animals were divided into various groups I-XVI consisting of 8 experimental animals for control, sample compounds (WE-1 to WE-7) and standard. Group I: Control, Group II-XV: WE-1 to WE-7 (sample compounds) at dose of 10 mg/kg and 20 mg/kg and Group XVI: Standard. The control (Group I) was given normal saline. Group II-XV received 10 mg/kg and 20 mg/kg of test sample (WE-1 to WE-7). […] The writhing test, following a previously established method, was conducted to assess the analgesic potential of the aurone derivatives. The mice were orally administered samples compounds (WE-1 to WE-7)and standard (Diclofenac sodium 10 mg/kg) 1 h before intraperitoneal administration 10 ml/kg of 1 % acetic acid. Five minutes after the acetic acid administration, the numbers of writhing episodes were counted for 10 min, and the percentage of inhibition was subsequently calculated.
(In writhing tests, fewer writhes than in controls are read as antinociception.)

Data set [3] has as its system formalin induced paw licking. The data set can be described thus: Formalin induced paw licking test. The format is in vivo. The settings on record: 20 mg/kg oral, mice. How it is done: The animals were divided into various groups I-XVI consisting of 8 experimental animals for control, sample compounds (WE-1 to WE-7) and standard. Group I: Control, Group II-XV: WE-1 to WE-7 (sample compounds) at dose of 10 mg/kg and 20 mg/kg and Group XVI: Standard. The control (Group I) was given normal saline. Group II-XV received 10 mg/kg and 20 mg/kg of test sample (WE-1 to WE-7). […] The acute peripheral and centrally mediated analgesic activity of aurone derivatives was evaluated using the formalin-induced pain method, as described. Samples compounds (WE-1 to WE-7) and a standard (Indomethacin 10 mg) were orally administered 30 min prior to 20 μl of 1 % formalin injection (prepared in 0.9 % saline) in right hind paw of the mice and immediately placed in a clear box to observe the animal's reaction. Paw licking or biting within 0–5 min indicated Phase 1, while animal reactions observed between 15 and 30 min indicated Phase 2. The number of paw licking or biting events was compared to the control group, and the percentage of inhibition was calculated.

Data set [4] has as its system opioid receptors (tail flicking latency). The data set can be described thus: Assessment of opioid mechanism via tail immersion test with Naloxone. The data set is classed as in vivo. The settings on record: mice; for Latency response 30 min: control 3.14 ± 0.31; for Latency response 60 min: control 3.17 ± 0.41; for Latency response 120 min: control 3.20 ± 0.29; for Latency response 90 min: control 3.31 ± 0.44. On the procedure: as §1
To verify the involvement of the opioid mechanism, following the approach outlined in the published study. […] These derivatives were assessed for their potential opioid activity within the control, sample compounds and standard groups using the tail immersion test.

The target of data set [5] is T1, COX-2 enzyme (Homo sapiens, UniProt P35354).
T1 construct: purchased Sigma Aldrich
T1 sequence (P35354 18-604): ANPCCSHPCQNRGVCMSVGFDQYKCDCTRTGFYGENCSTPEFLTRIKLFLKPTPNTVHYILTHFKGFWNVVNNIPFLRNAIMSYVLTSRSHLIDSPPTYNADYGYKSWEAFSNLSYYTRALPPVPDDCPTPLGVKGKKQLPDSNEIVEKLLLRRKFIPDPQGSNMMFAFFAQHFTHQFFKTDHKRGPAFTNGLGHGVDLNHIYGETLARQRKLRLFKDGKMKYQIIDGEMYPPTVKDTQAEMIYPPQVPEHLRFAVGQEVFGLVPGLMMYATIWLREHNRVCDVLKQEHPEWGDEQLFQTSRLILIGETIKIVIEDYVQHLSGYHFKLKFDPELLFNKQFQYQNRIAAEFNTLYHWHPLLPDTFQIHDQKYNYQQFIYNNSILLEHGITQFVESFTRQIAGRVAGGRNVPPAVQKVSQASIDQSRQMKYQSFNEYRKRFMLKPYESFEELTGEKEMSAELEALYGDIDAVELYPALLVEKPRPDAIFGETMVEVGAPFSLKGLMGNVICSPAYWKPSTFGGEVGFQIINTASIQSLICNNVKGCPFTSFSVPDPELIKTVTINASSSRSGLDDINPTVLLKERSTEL
The data set can be described thus: COX-2 inhibitory assay. The settings on record: Table 2. The data set is classed as biochemical. How it is done: COX-2 inhibition was measured spectrophotometrically at 550 nm after the formation of oxidized form of tetramethlenephenylenediamine (TMPD). This assay was conducted according to previously reported procedure. […] The reaction contained 10 μL COX-2 enzymes (100 μM in diluted in DMSO), 10 μL haem of 2.2 mM diluted in DMSO, tris buffers (pH. 8, 100 μl) and drug samples according to the above stated procedure. The reaction was started by the addition of freshly prepared TMPD and methanolic arachidonic acid (AA). Celecoxib is used as a reference drug in this assay. After 5 min of incubation at 25–28C, the absorbance was measured at 550 nm and inhibition was calculated.

For orientation: melting point means the temperature of the solid-liquid transition. One may read the IC50 as the concentration at which inhibition is half-maximal. Low values mean higher potency, high ones lower potency. `COc1ccc(C=C2Oc3ccccc3C2=O)cc1OC` [WE-4, 2-(3,4-dimethoxybenzylidene)benzofuran-3(2H)-one]: the melting point lay in the range of 175 to 178 °C. For the same compound, the tail flicking latency in data set [1] (10 mg/kg) came out at 11.23 ± 0.93. The “percentage inhibition of pain, tail immersion” value in data set [1] (20 mg/kg oral, at interval of highest effect) stood at 74.31%. The tail flicking latency in data set [1] (20 mg/kg) was 13.41 ± 1.21. Also, in data set [2] (10 mg/kg oral), the “percent analgesic effect (inhibition of writhing)” value is 71.30% and the number of writhing worked out at 17.57 ± 1.94. Besides, in data set [2] (20 mg/kg oral), the “percent analgesic effect (inhibition of writhing)” value is reported as 77.60% and the number of writhing was 13.71 ± 1.77. In addition, the “percentage inhibition of paw licking, Phase I” value in data set [3] (initial phase) came out at 49.97%. In data set [3] (late phase), the “percentage inhibition of paw licking, Phase II” value was 70.93% and 70.96%. For the same compound, the “number of formalin-induced paw licking, Phase II” value in data set [3] (late phase, control 55.81 ± 3.29) is on record as 16.22 ± 1.86. In data set [4] (10 mg/kg + Naloxone 2 mg/kg), the “Latency response 30 min” value was determined as 3.60 ± 0.61, the “Latency response 60 min” value turned out to be 4.49 ± 0.43, the “Latency response 120 min” value is recorded as 3.80 ± 0.49 and the “Latency response 90 min” value came to 5.30 ± 0.48. In data set [4] (20 mg/kg + Naloxone 2 mg/kg), the “Latency response 30 min” value turned out to be 3.41 ± 0.48, the “Latency response 60 min” value amounted to 4.67 ± 0.60, the “Latency response 120 min” value worked out at 4.03 ± 0.57 and the “Latency response 90 min” value is recorded as 4.80 ± 0.61. Besides, in data set [5], the IC50 worked out at 0.22 µM.
